Data published in patent US11534457B2, “Use of dextran sulfate” (priority 2017, dated 2022).

Test system: severe traumatic brain injury (sTBI)
Experiment: sTBI in rats, brain gene expression arrays and pathway analysis (Example 9)
Format: in vivo, Male Wistar rats
Method: The experimental protocol used in this study was approved by the Ethical Committee of the Catholic University of Rome, according to international standards and guidelines for animal care. Male Wistar rats of 300-350 g body weight were fed with standard laboratory diet and water ad libitum in a controlled environment. As the anesthetic mixture, the animals received 35 mg/kg b.w. ketamine and 0.25 mg/kg body weight midazolam by i.p. injection. Severe traumatic brain injury (sTBI) was induced by dropping a 450 g weight from 2 m height on to the rat head that had been protected by a metal disk previously fixed on the skull, according to the “weight drop” impact acceleration model (Marmarou et al., A new model of diffuse brain injury in rats. Part I: Pathophysiology and biomechanics. J Neurosurg. 1994; 80: 291-300). […] At the end of each period of treatment, rats were anesthetized again and then immediately sacrificed.
LMW-DS (Tikomed AB) was provided at a stock concentration of 20 mg/ml and was kept in a temperature-monitored refrigerator at 4° C. LMW-DS aliquots were diluted to the appropriate dosing concentration in sterile saline prior to delivery of a single subcutaneous injection.
Three doses of LMW-DS were administered subcutaneously 30 minutes post-TBI. The animals were sacrificed at 2 days post-TBI. The animals were divided into the following subgroups:
Three doses of LMW-DS were administered subcutaneously 30 minutes post-TBI. The animals were sacrificed at 7 days post-TBI. The animals were divided into the following subgroups:
An in vivo craniectomy was performed on all animals during anesthesia. After carefully removing the rat's skull, the brain was exposed and removed with a surgical spatula and quickly dropped in RNALater and preserved at 4° C. for further processing.
RNA extraction and array processing was carried out by SourceBioscience. The arrays used were the Agilent Rat expression arrays.
Statistical analysis was carried out using the Metaboanalyst software package. Gene expression changes of 10% with a p<0.05 were regarded as significant.
Pathway analysis of the differentially regulated genes was carried out using the Ingenuity pathway analysis package. The analysis was performed with special reference to pathways and molecular processes and diseases associated with neurodegenerative disease, including dementia, Alzheimer's disease, ALS, TBI and stroke, and with scarring and fibrosis, including glaucoma and normal pressure hydrocephalus (NPH) after subarachnoid haemorrhage.

[1] = TBI + 1 mg/kg LMW-DS, 2 days after TBI
[2] = TBI + 1 mg/kg LMW-DS, 7 days after TBI
[3] = TBI + 1 mg/kg LMW-DS, 7 days after TBI, relative to control
[4] = TBI + 1 mg/kg LMW-DS, after 7 days, TBI: Activated
[5] = TBI + 1 mg/kg LMW-DS, after 7 days, TBI: Inhibited
[6] = TBI + 5 mg/kg LMW-DS, 2 days after TBI
[7] = TBI + 5 mg/kg LMW-DS, 7 days after TBI

## low molecular weight dextran sulfate [LMW-DS]
[1]
  Diseases or functions annotation: Migration of cells: Activated
  Diseases or functions annotation: Necrosis: Inhibited
  Diseases or functions annotation: Non-hematologic malignant neoplasm: Inhibited
  Diseases or functions annotation: Pelvic tumor: Inhibited
  Diseases or functions annotation: Proliferation of blood cells: Inhibited
  Diseases or functions annotation: Proliferation of lymphatic system cells: Inhibited
  Diseases or functions annotation: Proliferation of lymphocytes: Inhibited
  Diseases or functions annotation: Quantity of blood cells: Inhibited
  Diseases or functions annotation: Quantity of bone: Inhibited
  Diseases or functions annotation: Quantity of cells: Inhibited
  Diseases or functions annotation: Quantity of connective tissue cells: Activated
  Diseases or functions annotation: Quantity of leukocytes: Inhibited
  Diseases or functions annotation: Quantity of lymphatic system cells: Inhibited
  Diseases or functions annotation: Quantity of phagocytes: Inhibited
  Diseases or functions annotation: Rheumatic Disease: Inhibited
  Diseases or functions annotation: Solid tumor: Inhibited
  Diseases or functions annotation: Survival of organism: Inhibited
  Diseases or functions annotation: Synthesis of hormone: Activated
  Diseases or functions annotation: Thrombus: Activated
  Diseases or functions annotation: Transport of molecule: Activated
[2]
  Ingenuity canonical pathway: Adrenomedullin signaling pathway: Inhibited
  Ingenuity canonical pathway: ERK5 Signaling: Inhibited
  Ingenuity canonical pathway: Endothelin-1 Signaling: Activated
  Ingenuity canonical pathway: G Beta Gamma Signaling: Activated
  Ingenuity canonical pathway: NF-κB Signaling: Inhibited
  Ingenuity canonical pathway: Opioid Signaling Pathway: Inhibited
  Ingenuity canonical pathway: Role of NFAT in Regulation of the Immune Response: Activated
  Ingenuity canonical pathway: Synaptic Long Term Depression: Activated
  z score: Abdominal cancer: −2.426
  z score: Abdominal carcinoma: −1.987
  z score: Cell movement: −1.01
  z score: Cell viability: −1.584
  z score: Concentration of hormone: −0.32
  z score: Development of connective tissue cells: −0.005
  z score: Development of malignant tumor: −1.326
  z score: Developmental process of synapse: −0.152
  z score: Differentiation of bone cells: −1.799
  z score: Differentiation of connective tissue cells: −0.349
  z score: Digestive organ tumor: −1.396
  z score: Digestive system cancer: −1.96
  z score: Epithelial neoplasm: −1.313
  z score: Formation of plasma membrane: −0.152
  z score: Frequency of tumor: −2.128
  z score: Gastrointestinal tumor: −1.029
  z score: Hematologic cancer: −1.067
  z score: Hematopoietic neoplasm: −0.686
  z score: Incidence of tumor: −1.614
  z score: Large intestine neoplasm: −1.192
  z score: Liver tumor: −1.91
  z score: Malignant genitourinary solid tumor: −0.537
  z score: Metabolism of hormone: −1.066
  z score: Pelvic tumor: −1.214
  z score: Quantity of Ca^2+: −0.11
  z score: Quantity of carbohydrate: 0.49
  z score: Quantity of metal: 0.415
  z score: Synthesis of lipid: 0.033
  z score: Tumorigenesis of epithelial neoplasm: −1.981
  z score: Tumorigenesis of tissue: −0.998
  z score: Vaso-occlusion: 1.264
  z score: Weight gain: 0.625
[3]
  Ingenuity canonical pathway Adrenomedullin signaling pathway, z score: −1
  Ingenuity canonical pathway ERK5 Signaling, z score: −2
  Ingenuity canonical pathway Endothelin-1 Signaling, z score: 1.342
  Ingenuity canonical pathway G Beta Gamma Signaling, z score: 1
  Ingenuity canonical pathway NF-κB Signaling, z score: −0.447
  Ingenuity canonical pathway Opioid Signaling Pathway, z score: −0.447
  Ingenuity canonical pathway Role of NFAT in Regulation of the Immune Response, z score: 0.816
  Ingenuity canonical pathway Synaptic Long Term Depression, z score: 1.342
  Ingenuity canonical pathway mTOR Signaling, z score: 1
[4]
  Diseases or functions annotation: Development of malignant tumor: Inhibited
  Diseases or functions annotation: Digestive organ tumor: Inhibited
  Diseases or functions annotation: Frequency of tumor: Inhibited
  Diseases or functions annotation: Gastrointestinal tumor: Inhibited
  Diseases or functions annotation: Hematologic cancer: Inhibited
  Diseases or functions annotation: Hematopoietic neoplasm: Inhibited
  Diseases or functions annotation: Incidence of tumor: Inhibited
  Diseases or functions annotation: Large intestine neoplasm: Inhibited
  Diseases or functions annotation: Vaso-occlusion: Activated
[5]
  Diseases or functions annotation: Abdominal cancer: Inhibited
  Diseases or functions annotation: Abdominal carcinoma: Inhibited
  Diseases or functions annotation: Cell movement: Inhibited
  Diseases or functions annotation: Cell viability: Inhibited
  Diseases or functions annotation: Concentration of hormone: Inhibited
  Diseases or functions annotation: Development of connective tissue cells: Inhibited
  Diseases or functions annotation: Developmental process of synapse: Inhibited
  Diseases or functions annotation: Differentiation of bone cells: Inhibited
  Diseases or functions annotation: Differentiation of connective tissue cells: Inhibited
  Diseases or functions annotation: Digestive system cancer: Inhibited
  Diseases or functions annotation: Epithelial neoplasm: Inhibited
  Diseases or functions annotation: Formation of plasma membrane: Inhibited
  Diseases or functions annotation: Liver tumor: Inhibited
  Diseases or functions annotation: Malignant genitourinary solid tumor: Inhibited
  Diseases or functions annotation: Metabolism of hormone: Inhibited
  Diseases or functions annotation: Pelvic tumor: Inhibited
  Diseases or functions annotation: Quantity of Ca^2+: Inhibited
  Diseases or functions annotation: Quantity of carbohydrate: Activated
  Diseases or functions annotation: Quantity of metal: Activated
  Diseases or functions annotation: Synthesis of lipid: Activated
  Diseases or functions annotation: Tumorigenesis of epithelial neoplasm: Inhibited
  Diseases or functions annotation: Tumorigenesis of tissue: Inhibited
  Diseases or functions annotation: Weight gain: Activated
[6]
  Diseases or functions annotation: Abdominal cancer: Inhibited
  Diseases or functions annotation: Abdominal carcinoma: Inhibited
  Diseases or functions annotation: Abdominal neoplasm: Inhibited
  Diseases or functions annotation: Apoptosis: Activated
  Diseases or functions annotation: Behavior: Inhibited
  Diseases or functions annotation: Carcinoma: Inhibited
  Diseases or functions annotation: Cell death: Activated
  Diseases or functions annotation: Cell death of antigen presenting cells: Inhibited
  Diseases or functions annotation: Cell death of immune cells: Inhibited
  Diseases or functions annotation: Cell death of tumor cell lines: Inhibited
  Diseases or functions annotation: Cell movement: Inhibited
  Diseases or functions annotation: Cell movement of tumor cell lines: Inhibited
  Diseases or functions annotation: Cell proliferation of leukocyte cell lines: Inhibited
  Diseases or functions annotation: Cellular homeostasis: Inhibited
  Diseases or functions annotation: Chemotaxis: Inhibited
  Diseases or functions annotation: Concentration of prostaglandin: Inhibited
  Diseases or functions annotation: Development of vasculature: Inhibited
  Diseases or functions annotation: Digestive organ tumor: Inhibited
  Diseases or functions annotation: Digestive system cancer: Inhibited
  Diseases or functions annotation: Edema: Activated
  Diseases or functions annotation: Epithelial neoplasm: Inhibited
  Diseases or functions annotation: Extracranial solid tumor: Inhibited
  Diseases or functions annotation: Feeding: Inhibited
  Diseases or functions annotation: Growth of tumor: Inhibited
  Diseases or functions annotation: Hematologic cancer: Inhibited
  Diseases or functions annotation: Incidence of tumor: Inhibited
  Diseases or functions annotation: Leukocyte migration: Inhibited
  Diseases or functions annotation: Leukopoiesis: Inhibited
  Diseases or functions annotation: Locomotion: Inhibited
  Diseases or functions annotation: Lymphocyte homeostasis: Inhibited
  Diseases or functions annotation: Lymphocytic cancer: Inhibited
  Diseases or functions annotation: Lymphocytic neoplasm: Inhibited
  Diseases or functions annotation: Lymphopoiesis: Inhibited
  Diseases or functions annotation: Lymphoproliferative disorder: Inhibited
  Diseases or functions annotation: Malignant solid tumor: Inhibited
  Diseases or functions annotation: Metabolism of hormone: Inhibited
  Diseases or functions annotation: Migration of cells: Inhibited
  Diseases or functions annotation: Necrosis: Inhibited
  Diseases or functions annotation: Neoplasia of leukocytes: Inhibited
  Diseases or functions annotation: Non-melanoma solid tumor: Inhibited
  Diseases or functions annotation: Proliferation of hematopoietic progenitor cells: Inhibited
  Diseases or functions annotation: Quantity of cells: Inhibited
  Diseases or functions annotation: Quantity of epithelial tissue: Inhibited
  Diseases or functions annotation: Quantity of neuroglia: Inhibited
  Diseases or functions annotation: Resorption of bone: Inhibited
  Diseases or functions annotation: Secretion of molecule: Activated
  Diseases or functions annotation: Size of body: Inhibited
  Diseases or functions annotation: Synthesis of hormone: Inhibited
  Diseases or functions annotation: Transcription of RNA: Inhibited
  Diseases or functions annotation: Transport of molecule: Activated
  Diseases or functions annotation: Vasculogenesis: Inhibited
[7]
  Ingenuity canonical pathway: Acute Phase Response Signaling: Activated
  Ingenuity canonical pathway: Adrenomedullin signaling pathway: Inhibited
  Ingenuity canonical pathway: Cardiac Hypertrophy Signaling: Activated
  Ingenuity canonical pathway: Colorectal Cancer Metastasis Signaling: Inhibited
  Ingenuity canonical pathway: Dendritic Cell Maturation: Activated
  Ingenuity canonical pathway: ERK5 Signaling: Inhibited
  Ingenuity canonical pathway: ERK/MAPK Signaling: Activated
  Ingenuity canonical pathway: Endothelin-1 Signaling: Activated
  Ingenuity canonical pathway: Fcγ Receptor-mediated Phagocytosis in Macrophages and Monocytes: Activated
  Ingenuity canonical pathway: GNRH Signaling: Activated
  Ingenuity canonical pathway: HMGB1 Signaling: Activated
  Ingenuity canonical pathway: IL-1 Signaling: Activated
  Ingenuity canonical pathway: IL-6 Signaling: Activated
  Ingenuity canonical pathway: IL-8 Signaling: Activated
  Ingenuity canonical pathway: ILK Signaling: Activated
  Ingenuity canonical pathway: Leukocyte Extravasation Signaling: Activated
  Ingenuity canonical pathway: Neuroinflammation Signaling Pathway: Activated
  Ingenuity canonical pathway: Osteoarthritis Pathway: Inhibited
  Ingenuity canonical pathway: PI3K Signaling in B Lymphocytes: Activated
  Ingenuity canonical pathway: PKCθ Signaling in T Lymphocytes: Activated
  Ingenuity canonical pathway: PPAR Signaling: Inhibited
  Ingenuity canonical pathway: Phospholipase C Signaling: Activated
  Ingenuity canonical pathway: Production of Nitric Oxide and Reactive Oxygen Species in Macrophages: Activated
  Ingenuity canonical pathway: Protein Kinase A Signaling: Inhibited
  Ingenuity canonical pathway: Role of NFAT in Regulation of the Immune Response: Activated
  Ingenuity canonical pathway: Signaling by Rho Family GTPases: Activated
  Ingenuity canonical pathway: Synaptic Long Term Depression: Activated
  Ingenuity canonical pathway: Wnt/β-catenin Signaling: Inhibited
  Ingenuity canonical pathway: cAMP-mediated signaling: Inhibited
  Ingenuity canonical pathway: mTOR Signaling: Activated
  z score: Abdominal adenocarcinoma: 0.73
  z score: Abdominal cancer: −0.474
  z score: Abdominal carcinoma: −0.831
  z score: Abdominal neoplasm: 0.061
  z score: Adenocarcinoma: −0.155
  z score: Angiogenesis: 0.294
  z score: Apoptosis: −0.676
  z score: Apoptosis of tumor cell lines: −0.941
  z score: Bleeding: −2.118
  z score: Breast or colorectal cancer: −1.953
  z score: Breast or ovarian cancer: −1.953
  z score: Breast or pancreatic cancer: −1.026
  z score: Cancer: 0.905
  z score: Cancer of cells: 0.742
  z score: Cancer of secretory structure: 0.64
  z score: Carcinoma: −0.403
  z score: Cell cycle progression: 1.58
  z score: Cell death: 0.791
  z score: Cell death of epithelial cells: 1.993
  z score: Cell death of tumor cell lines: −0.811
  z score: Cell movement: 2.297
  z score: Cell movement of endothelial cells: 2.084
  z score: Cell movement of myeloid cells: 3.907
  z score: Cell movement of tumor cell lines: 1.492
  z score: Cell survival: 1.966
  z score: Cell viability: 1.879
  z score: Cell viability of tumor cell lines: 0.991
